Assay results taken from patent publication US8178547B2, “Heterocyclic antiviral compounds” (Roche Palo Alto LLC, priority 2008, dated 2012).

Key:
[1] = biological target: T1, HCV polymerase (NS5B570n-Con1) (Hepatitis C virus genotype 1b, UniProt Q9WMX2); assay: HCV NS5B RNA polymerase activity; assay type: biochemical, HCV Con1 strain
T1 construct: a 21 amino acid C-terminal deletion of full-length HCV polymerase; made in house; host or cells: E. coli BL21(DE3) pLysS, plasmid pET17b
Description: The enzymatic activity of HCV polymerase (NS5B570n-Con1) was measured as the incorporation of radiolabeled nucleotide monophosphates into acid insoluble RNA products. Unincorporated radiolabeled substrate was removed by filtration and scintillant was added to the washed and dried filter plate containing radiolabeled RNA product. The amount of RNA product generated by NS5B570n-Con1 at the end of the reaction was directly proportional to the amount of light emitted by the scintillant.
The HCV polymerase used in the enzymatic activity assay is a 21 amino acid C-terminal deletion of full-length HCV polymerase derived from HCV Con1 strain, genotype 1b (GenBank accession number AJ242654) (NS5B570n-Con1). The NS5B570n-Con1 was sub-cloned downstream to the T7 promoter of the plasmid expression construct pET17b and transformed into E. coli strain BL21(DE3) pLysS for protein expression. A single colony was used to start an innoculum for a 10 L culture in LB media supplemented with 100 μg/mL ampicillin at 37° C. Protein expression was induced by the addition of 0.25 mM isopropyl-β-D-thiogalactopyranoside (IPTG) when the optical density of the culture at […] was 0.8. Induction of protein expression was carried out at 30° C. for 16 h after which the cells were harvested by centrifugation. NS5B570n-Con1 was purified to homogeneity using a three-column purification protocol including subsequent column chromatography on Ni-NTA, SP-Sepharose HP and Superdex 75 resins.
[…] TRK-412; specific activity: 30 to 60 Ci/mmol;), 1 μM each ATP, CTP, and GTP, 40 mM Tris-HCl pH 8.0, 40 mM NaCl, 4 mM DTT (dithiothreitol), 4 mM MgCl2, 5 μl of compound serial diluted in DMSO, and nuclease-free water to a final reaction volume of 50 μl. Enzymatic reactions in the presence of poly A RNA template (see section 0004) contained 20 nM Poly A:oligo(rU)16 premixed (see section 0004), 20 nM NS5B570n-Con1 enzyme, 1 μCi of tritiated UTP (Perkin Elmer catalog no. TRK-412; specific activity: 30 to 60 Ci/mmol), 40 mM Tris-HCl pH 8.0, 40 mM NaCl, 4 mM DTT (dithiothreitol), 4 mM MgCl2, 5 μl of compound serial diluted in DMSO, and nuclease-free water to a final reaction volume of 50 μl. Reaction mixtures were assembled in 96-well filter plates (cat #MADVN0B, Millipore Co.) and incubated for 2 h at 30° C. Reactions were stopped by addition of 10% final (v/v) trichloroacetic acid and incubated for 40 min at 4° C. Reactions were filtered, washed with 8 reaction volumes of 10% (v/v) trichloroacetic acetic acid, 4 reaction volumes of 70% (v/v) ethanol, air dried, and 25 μl of scintillant (Microscint 20, Perkin-Elmer) was added to each reaction well.
Two RNA templates were used to assay compounds described herein. The cIRES RNA template was 377 nucleotide long and consisted of a partial complementary sequence (36 nucleotides) of the core protein, followed by 341 nucleotide of the complementary sequence of the internal ribosome entry site. The poly A RNA template (GE Amersham catalog number 27-4110) was a homopolymeric RNA pre-annealed to a oligo(rU)16 primer at a molar ratio of 3-to-1 (primer-template).
The amount of light emitted from the scintillant was converted to counts per minute (CPM) on a Topcount® plate reader (Perkin-Elmer, Energy Range: Low, Efficiency Mode: Normal, Count Time: 1 min, Background Subtract: none, Cross talk reduction: Off).
Data was analyzed in Excel® (Microsoft) and ActivityBase® (Idbs®). The reaction in the absence of enzyme was used to determine the background signal, which was subtracted from the enzymatic reactions. […] All data was expressed as a percentage of the positive control. The compound concentration at which the enzyme-catalyzed rate of RNA synthesis was reduced by 50%

[2] = NS5B pol inhibition IC50, as in Example 32 (20 nM RNA template)
[3] = NS5B pol inhibition IC50, cell values marked ^2, as in Example 32 except RNA template concentration 3 nM (footnote 3)

SMILES	IC50 [1, 2]	melting point	IC50 [1, 3]
COc1c(CCc2ccc(NC(C)=O)cc2)cc(-c2ncc[nH]c2=O)cc1C(C)(C)C [Compound I-2, N-(4-{2-[3-tert-Butyl-2-methoxy-5-(3-oxo-3,4-dihydro-pyrazin-2-yl)-phenyl]-ethyl}-phenyl)-acetamide]	710 nM	181 to 185 °C	
COc1c(CCc2ccc(NS(C)(=O)=O)cc2)cc(-c2ncc[nH]c2=O)c(F)c1C(C)(C)C [Compound I-3, N-(4-{2-[3-tert-Butyl-4-fluoro-2-methoxy-5-(3-oxo-3,4-dihydro-pyrazin-2-yl)-phenyl]-ethyl}-phenyl)-methanesulfonamide]	41 nM	130 to 132 °C	
CC(C)(C)c1cc(CCc2ccc(NS(C)(=O)=O)cc2)c(O)c(-c2ncc[nH]c2=O)c1 [Compound I-5, N-(4-{2-[5-tert-butyl-2-hydroxy-3-(3-oxo-3,4-dihydro-pyrazin-2-yl)-phenyl]-ethyl}-phenyl)-methanesulfonamide]	92 nM		
CC(C)(C)c1cc(/C=C/c2ccc(NS(C)(=O)=O)cc2)c(O)c(-c2ncc[nH]c2=O)c1 [Compound I-6, N-(4-{(E)-2-[5-tert-Butyl-2-hydroxy-3-(3-oxo-3,4-dihydro-pyrazin-2-yl)-phenyl]-vinyl}-phenyl)-methanesulfonamide]	454 nM	280 to 282 °C	
COc1c(/C=C/c2ccc(NS(C)(=O)=O)cc2F)cc(-c2c[nH]c(=O)[nH]c2=O)cc1C(C)(C)C [Compound I-7, N-(4-{(E)-2-[3-tert-Butyl-5-(2,4-dioxo-1,2,3,4-tetrahydro-pyrimidin-5-yl)-2-methoxy-phenyl]-vinyl}-3-fluoro-phenyl)-methanesulfonamide]	0.3 nM		
COc1c(/C=C/c2ccc(NS(C)(=O)=O)cc2)cc(-c2cn(C)c(=O)[nH]c2=O)cc1C(C)(C)C [Compound I-8, N-(4-{(E)-2-[3-tert-Butyl-2-methoxy-5-(1-methyl-2,4-dioxo-1,2,3,4-tetrahydro-pyrimidin-5-yl)-phenyl]-vinyl}-phenyl)-methanesulfonamide]	1.3 nM	> 300 °C	
CC(C)(C)c1cc(/C=C/c2ccc(NS(C)(=O)=O)cc2)cc(-c2ncc[nH]c2=O)c1 [Compound I-10]	7 nM	283 to 285 °C	
COc1c(/C=C/c2ccc(NS(C)(=O)=O)cc2)cc(-c2ncc[nH]c2=O)cc1C(C)(C)C [Compound I-11, N-(4-{(E)-2-[3-tert-Butyl-2-methoxy-5-(3-oxo-3,4-dihydro-pyrazin-2-yl)-phenyl]-vinyl}-phenyl)-methanesulfonamide]	4 nM		
Cc1cc(-c2ccn[nH]c2=O)cc(C(C)(C)C)c1 [Compound I-12]	390 nM	175 to 176 °C	
COc1c(/C=C/c2ccccc2)cc(-c2ccn[nH]c2=O)cc1C(C)(C)C [Compound I-14]	7 nM	100 to 102 °C	
CC(C)(C)c1cc(/C=C/c2ccc(NS(C)(=O)=O)cc2)cc(-c2ccn[nH]c2=O)c1 [Compound I-15]	3 nM		
COc1ccc(-c2ccn[nH]c2=O)cc1C(C)(C)C [Compound I-16]	132 nM	202 to 204 °C	
COc1c(/C=C/c2ccc(NS(C)(=O)=O)cc2)cc(-c2cc(C)n[nH]c2=O)cc1C(C)(C)C [Compound I-17]	10 nM	292 to 294 °C	
COc1c(NC(=O)c2ccc(N)cc2)cc(-c2ccn[nH]c2=O)cc1C(C)(C)C [Compound I-19, 4-Amino-N-[3-tert-butyl-2-methoxy-5-(3-oxo-2,3-dihydro-pyridazin-4-yl)-phenyl]-benzamide]	15 nM	174 to 176 °C	
COc1c(NC(=O)c2ccc(NCC(F)(F)F)cc2)cc(-c2ccn[nH]c2=O)cc1C(C)(C)C [Compound I-20, N-[3-tert-Butyl-2-methoxy-5-(3-oxo-2,3-dihydro-pyridazin-4-yl)-phenyl]-4-(2,2,2-trifluoro-ethylamino)-benzamide]	5 nM	250 to 252 °C	3 nM
CC1(C)COc2c(-c3ncc[nH]c3=O)cc(/C=C/c3ccc(NS(C)(=O)=O)cc3)cc21 [Compound I-23, N-(4-{(E)-2-[3,3-Dimethyl-7-(3-oxo-3,4-dihydro-pyrazin-2-yl)-2,3-dihydro-benzofuran-5-yl]-vinyl}-phenyl)-methanesulfonamide]		302 to 304 °C	19 nM
COc1c(/C=C/c2ccc(NS(C)(=O)=O)cc2)cc(-c2ccn[nH]c2=O)cc1C1CC1 [Compound I-26, N-(4-{(E)-2-[3-Cyclopropyl-2-methoxy-5-(3-oxo-2,3-dihydro-pyridazin-4-yl)-phenyl]-vinyl}-phenyl)-methanesulfonamide]	2.1 nM	269 to 271 °C	
COc1c(/C=C/c2ccc(NS(C)(=O)=O)cc2)cc(-c2ccn[nH]c2=O)c2c1C(C)(C)CO2 [Compound I-27, N-(4-{(E)-2-[4-Methoxy-3,3-dimethyl-7-(3-oxo-2,3-dihydro-pyridazin-4-yl)-2,3-dihydro-benzofuran-5-yl]-vinyl}-phenyl)-methanesulfonamide]	0.3 nM		
COc1c(/C=C/c2ccc(NS(C)(=O)=O)cn2)cc(-c2c[nH]c(=O)[nH]c2=O)cc1C(C)(C)C [Compound I-29, N-(6-{(E)-2-[3-tert-Butyl-5-(2,4-dioxo-1,2,3,4-tetrahydro-pyrimidin-5-yl)-2-methoxy-phenyl]-vinyl}-pyridin-3-yl)-methanesulfonamide]	1.2 nM		
COc1c(-c2ccc3cc(NS(C)(=O)=O)ccc3c2)cc(-c2ncn[nH]c2=O)cc1C(C)(C)C [Compound I-37, N-{6-[3-tert-Butyl-2-methoxy-5-(6-oxo-1,6-dihydro-[1,2,4]triazin-5-yl)-phenyl]-naphthalen-2-yl}-methanesulfonamide]	0.7 nM		
COc1c(/C=C/c2ccc(NS(C)(=O)=O)cc2)cc(-c2c[nH]c(=O)[nH]c2=O)cc1CC(F)(F)F [Compound I-38, N-(4-{(E)-2-[5-(2,4-Dioxo-1,2,3,4-tetrahydro-pyrimidin-5-yl)-2-methoxy-3-(2,2,2-trifluoro-ethyl)-phenyl]-vinyl}-phenyl)-methanesulfonamide]	1.4 nM		
COCc1cc(NS(C)(=O)=O)ccc1/C=C/c1cc(-c2cnc(OC)[nH]c2=O)cc(C(C)(C)C)c1OC [Compound I-39, N-(4-{(E)-2-[3-tert-Butyl-2-methoxy-5-(2-methoxy-6-oxo-1,6-dihydro-pyrimidin-5-yl)-phenyl]-vinyl}-3-methoxymethyl-phenyl)-methanesulfonamide]	0.9 nM		
COc1c(/C=C/c2ccc(NS(C)(=O)=O)cc2)cc(-c2c(O)nc(C)[nH]c2=O)cc1C(C)(C)C [Compound I-41, N-(4-{(E)-2-[3-tert-Butyl-5-(4-hydroxy-2-methyl-6-oxo-1,6-dihydro-pyrimidin-5-yl)-2-methoxy-phenyl]-vinyl}-phenyl)-methanesulfonamide]	0.4 nM		
COc1c(/C=C/c2ccc(NS(C)(=O)=O)cc2)cc(-c2cnc(C)[nH]c2=O)cc1C(C)(C)C [Compound I-43, N-(4-{(E)-2-[3-tert-Butyl-2-methoxy-5-(2-methyl-6-oxo-1,6-dihydro-pyrimidin-5-yl)-phenyl]-vinyl}-phenyl)-methanesulfonamide]	1.1 nM		
